PMC8147781, “Discovery of Pyrrolidine-2,3-diones as Novel Inhibitors of P. aeruginosa PBP3” (Antibiotics, 2021)
≈ marks a conversion by molar mass, not a printed value. Read-outs that look alike come from different tables or passages of the source.

Columns and labels:
S. aureus 133 = assay: MIC broth microdilution, S. aureus; format: cell-based; conditions: Staphylococcus aureus, 133; Table S3
Procedure: (§1) MIC determination was performed via standard broth microdilution according to the Clinical & Laboratory Standards institute guidelines. Overnight colonies grown on BD-Columbia agar with 5% Sheep Blood (Becton Dickinson, Franklin Lakes, NJ, USA), were diluted in Mueller Hinton Broth 2 cation adjusted (MH+) medium (Thermo Fisher Scientific) to a concentration of 5 × 10^5 CFU/mL. Serial dilutions (1:2) of test compounds were incubated at 37 °C with 5 × 10^4 bacteria in a final volume of 100 μL. Sterile and growth controls in the presence of 1% DMSO and PMBN if the case, and the positive controls, aztreonam (AZT) and tigecycline (TIG) were included in the experiments (Table S4). The MICs were determined visually after 18 h at 37 °C and confirmed by the addition of 10% PrestoBlue (ThermoFisher Scientific) reagent according to the manufacture’s protocol. The fluorescence signal of PrestoBlue reagent was measured at Ex/Em: 550/595 nm after 30 min incubation at 37 °C using at a ClarioStar microplate reader (BMG Labtech). PrestoBlue reduction occurs in the presence of living cells and consequently turns red in colour and is highly fluorescent.

S. pneumoniae = assay: MIC broth microdilution, S. pneumoniae; format: cell-based; conditions: Streptococcus pneumoniae, read-out: MIC (µM) S. pneumoniae
Procedure: as §1

[1] = tested on: T-lymphoblast CCRF-CEM cell line; assay: Cytotoxicity assay (PrestoBlue), CCRF-CEM; conditions: for Cytotoxicity CCRF-CEM: CC50, 72 h; for cytotoxic potential at the tested cell lines: four cell lines: NRK-52E, Hep G2, CCRF-CEM, H9
Procedure: (§2) We finally tested the cytotoxicity of the compounds against four eukaryotic cell lines (Table 2 and Table S5), NRK-52E, an epithelial kidney cell line of Rattus norvegicus; Hep G2, an human epithelial liver cell line; and two suspension cell lines: CCRF-CEM, a T lymphoblast; and H9, a cutaneous T lymphocyte cell line.
(§3) Cell lines stored at −120 °C were thawed to 37 °C and resuspended in 10 mL of medium pre-warmed to 37 °C. Cells were pelleted at 300× g for 10 min, and then resuspended in fresh medium, seeded in a T-75 culture flask, and placed in a CO2 incubator (37 °C with 5% CO2 tension). Once the cells reached approximately 70–80% confluency, they were then passaged regularly. The adherent cell lines NRK52E, HepG2 and Huh 7 were washed once with 10 mL DPBS and detached with Trypsin-EDTA for 5 to 7 min and resuspended in 15 mL of the appropriate medium. The suspension cell line CCRF-CEM were diluted and resuspended in fresh RPMI 1640 PAN medium. To calculate the cell density, the cell resuspensions were diluted 1:6 with DPBS. Equal volumes of cell suspension and Trypan Blue were mixed and gently loaded into a haemocytometer (INCYTO, 31056 Republic of Korea). In each experiment, cell concentrations were adjusted to reach a concentration of 2.5 × 10^3 cell/well for NRK52E, 5 × 10^3 cell/well for HepG2, 6.2 × 10^4 cell/well for CCRF-CEM and 3 × 10^3 for H9. The cells were incubated with decreasing concentration of compounds (1 µL in 96% DMSO) for 72 h at 37 °C with 5% CO2 tension. Cycloheximide, a cytotoxic compound that interferes with the translocation step in eukaryotic protein synthesis was used as a control for the experiments. The assay was carried out in flat-bottom, transparent 96-well plates. Cell viability was determined using the PrestoBlue reagent (Thermo Fisher Scientific, Waltham, MA, USA) according to the manufacture’s protocol. First, 10× PrestoBlue was added to each well to obtain a 1× solution, and incubated at 37 °C for 45 min. Then, fluorescence was measured at Ex/Em: 550/595 nm using a ClarioStar microplate reader (BMG Labtech). Cytotoxicity was determined as the percentage of the difference in absorbance of the untreated sample to the treated sample. CC50 was calculated using the values obtained in each concentration using the sigmoidal dose-response by Prism v.8. The media used in each cell line is detailed in Table S6.

[2] = tested on: NRK-52E, epithelial kidney cell line; assay: Cytotoxicity assay (PrestoBlue), NRK52E; conditions: CC50, 72 h
Procedure: as §2, §3

[3] = tested on: H9, cutaneous T lymphocyte cell line; assay: Cytotoxicity assay (PrestoBlue), H9; conditions: CC50, 72 h
Procedure: as §2, §3

E. coli Neumann = assay: MIC broth microdilution, E. coli; format: cell-based; conditions: Escherichia coli; Table S3; read-out: MIC (µM) E. coli Neumann
Procedure: as §1

[4] = molecular target: T1, PBP3 of P. aeruginosa (PaPBP3) (Pseudomonas aeruginosa, UniProt G3XD46); assay: S2dfluo fluorescence transpeptidase assay; format: biochemical; conditions: 300 nM PaPBP3, 30 min preincubation, 37 °C; for IC50: read-out: IC50 Determination with PaPBP3, S2dfluo Assay
T1 construct: P. aeruginosa PBP3 (amino acids 40 to 563); His-tag; made in house; host or cells: E. coli BL21 (DE3) Rosetta, plasmid pET41_PBP-3
T1 sequence (G3XD46 40-563): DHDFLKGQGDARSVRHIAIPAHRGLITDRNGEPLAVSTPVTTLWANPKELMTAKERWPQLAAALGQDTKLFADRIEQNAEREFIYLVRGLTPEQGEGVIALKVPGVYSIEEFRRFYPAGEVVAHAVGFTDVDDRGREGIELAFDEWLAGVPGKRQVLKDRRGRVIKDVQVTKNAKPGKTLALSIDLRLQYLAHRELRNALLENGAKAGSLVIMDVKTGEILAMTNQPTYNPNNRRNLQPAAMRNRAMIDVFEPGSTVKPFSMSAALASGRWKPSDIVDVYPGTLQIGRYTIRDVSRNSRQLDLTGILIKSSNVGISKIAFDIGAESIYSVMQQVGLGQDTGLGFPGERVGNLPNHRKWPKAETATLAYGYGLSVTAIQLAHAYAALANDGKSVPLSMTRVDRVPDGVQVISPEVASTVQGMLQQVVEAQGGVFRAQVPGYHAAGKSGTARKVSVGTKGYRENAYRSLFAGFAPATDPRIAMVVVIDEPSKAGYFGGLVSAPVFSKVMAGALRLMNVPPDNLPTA
Procedure: The assays were carried out in the presence of 5% DMSO and 0.01% Triton X100 to avoid the formation of colloidal structures and adsorption of protein and/or compounds to surfaces. The Z’-factor determined for the assay was 0.73 ± 0.28, indicating the suitability and robustness of the assay for high throughput screening (HTS) (Figure 1B,C).
The activity of soluble ^PaPBP3 (300 nM) was measured in the presence of 0.8 mM S2d, 1 mM D-alanine and 0.5 mM mBBr for 25 min by monitoring the increase in the fluorescence intensity of mBBr at Ex/Em: 394/490 nm using an Infinite M1000 microplate reader (Tecan, Männedorf, Switzerland). To test the effect of inhibitors, 100 µM or 0.8 to 100 µM of compounds diluted in 96% DMSO were incubated for 30 min and 450 rpm with 300 nM soluble PBP3. The incubation period was set to improve the binding of non-covalent inhibitors and 0.01% Triton X100 (Sigma-Aldrich, Taufkirchen, Germany) was added to prevent aggregation of compounds. The enzyme reaction was started by adding a substrate mix of 0.8 mM S2d and […]. The enzyme, compound and substrate mix were mixed 1:1, pipetted with a Liquidator 96 (Melter Toledo, Gießen, Germany) and the fluorescence intensity was directly monitored with an Infinite M1000 microplate reader (Tecan) at Ex/Em: 394/490 nm. The assay was performed in black, flat-bottom 96-well microplates (Greiner Bio-One, Kremsmünster, Austria) at 37 °C in Sorensen Phosphate Buffer (57 mM Na2HPO4 and 10 mM KH2PO4, pH 7.5 + 0.01% Triton X-100). The velocity of the PBP3 reaction was calculated in the presence of each concentration of compound and the velocity values were used to estimate IC50 by sigmoidal nonlinear regression, using Prism v.9 software (San Diego, CA, USA) and the velocity of the reaction at each concentration.

B. subtilis 168 = assay: MIC broth microdilution, B. subtilis; format: cell-based; conditions: Bacillus subtilis, 168; Table S3
Procedure: as §1

A. baumannii ATCC15308 = assay: MIC broth microdilution, A. baumannii; format: cell-based; conditions: 10 µg/mL PMBN
Procedure: as §1

[5] = tested on: Hep G2, epithelial liver cell line; assay: Cytotoxicity assay (PrestoBlue), HepG2; conditions: CC50, 72 h
Procedure: as §2, §3

[6] = tested on: K. pneumoniae clinical isolate; assay: MIC broth microdilution, K. pneumoniae; format: cell-based; conditions: Klebsiella pneumoniae; Table S3
Procedure: as §1

SMILES | MIC (S. aureus 133) [µM] | MIC (S. pneumoniae; Table S3) [µM] | Cytotoxicity CCRF-CEM [1] [µM] | Cytotoxicity effect (µM) Epithelial kidney NRK52E [2] [µM] | Cytotoxicity effect (µM) T-lymphocyte H9 [3] [µM] | MIC (E. coli Neumann) [µM] | IC50 [4] [µM] | MIC (B. subtilis 168) [µM] | MIC (µM) A. baumanii ATCC15308 (A. baumannii ATCC15308) [µM] | Cytotoxicity effect (µM) Epithelial liver HepG2 [5] [µM] | MIC [6] [µM] | IC50 Determination with PaPBP3, S2dfluo Assay [4] | MIC (S. pneumoniae) [µM] | cytotoxic potential at the tested cell lines [1]
O=C(C1=C(O)C(=O)N(Cc2cccc(F)c2)C1c1ccc(Cl)cc1)c1ccc(Br)cc1 (stereo not drawn) [Compound 1] | > 100 | 25 (≈ 12.5 µg/mL) | >100 | > 100 | > 100 | > 100 | 28 ± 9 | > 100 | > 100 | > 100 | > 100 | – | – | –
O=C1NC(c2ccc(Cl)cc2)C(C(=O)c2ccc(Br)cc2)=C1O (stereo not drawn) [Compound 32, 4-(4-bromobenzoyl)-5-(4-chlorophenyl)-3-hydroxy-1,5-dihydropyrrol-2-one] | > 100 | > 100 | 94 ± 6 | 98 ± 5 | > 100 | > 100 | > 100 | 100 (≈ 39.3 µg/mL) | > 100 | > 100 | > 100 | loss of the inhibitory effect | – | –
CCN1C(=O)C(O)=C(C(=O)c2ccc(Br)cc2)C1c1ccc(Cl)cc1 (stereo not drawn) [Compound 33] | > 100 | 50 (≈ 21 µg/mL) | 58 ± 6 | 84 ± 5 | > 100 | > 100 | > 100 | > 100 | > 100 | > 100 | > 100 | loss of the inhibitory effect | – | –
O=C(C1=C(O)C(=O)N(Cc2cc3ccccc3[nH]2)C1c1ccc(Cl)cc1)c1ccc(Br)cc1 (stereo not drawn) [Compound 34, 4-(4-bromobenzoyl)-5-(4-chlorophenyl)-3-hydroxy-1-(1H-indol-2-ylmethyl)-5H-pyrrol-2-one] | 6.25 (≈ 3.26 µg/mL) | – | >100 | > 100 | > 100 | > 100 | 14 ± 9 | 25 (≈ 13 µg/mL) | > 100 | > 100 | > 100 | – | 12.5 (≈ 6.52 µg/mL) | –
O=C(C1=C(O)C(=O)N(Cc2cc3cc(Cl)ccc3[nH]2)C1c1ccc(Cl)cc1)c1ccc(Br)cc1 (stereo not drawn) [Compound 35] | 3.13 (≈ 1.74 µg/mL) | 6.25 (≈ 3.48 µg/mL) | > 100 | 53 ± 5 | 96 ± 7 | > 100 | 3 ± 1 | 6.25 (≈ 3.48 µg/mL) | > 100 | > 100 | > 100 | – | – | –
O=C(C1=C(O)C(=O)N(Cc2cc3cnccc3[nH]2)C1c1ccc(Cl)cc1)c1ccc(Br)cc1 (stereo not drawn) [Compound 36] | > 100 | > 100 | – | 58 ± 3 | 48 ± 2 | > 100 | > 100 | > 100 | > 100 | 1 ± 2 | > 100 | – | – | high cytotoxic potential
O=C(C1=C(O)C(=O)N(CCc2cc3ccccc3[nH]2)C1c1ccc(Cl)cc1)c1ccc(Br)cc1 (stereo not drawn) [Compound 37] | 6.25 (≈ 3.35 µg/mL) | 50 (≈ 26.8 µg/mL) | 8 ± 6 | 9 ± 12 | 19 ± 6 | > 100 | 16 ± 8 | 3.13 (≈ 1.68 µg/mL) | > 100 | 20 ± 4 | > 100 | – | – | high cytotoxic potential
O=C(C1=C(O)C(=O)N(Cc2nc3ccccc3[nH]2)C1c1ccc(Cl)cc1)c1ccc(Br)cc1 (stereo not drawn) [Compound 38] | > 100 | 25 (≈ 13.1 µg/mL) | >100 | > 100 | > 100 | > 100 | 100 ± 11 | > 100 | > 100 | > 100 | > 100 | drastic loss of the inhibitory activity | – | –
CCNC1=C(C(=O)c2ccc(Br)cc2)C(c2ccc(Cl)cc2)N(Cc2cccc(F)c2)C1=O (stereo not drawn) [Compound 43, 4-(4-bromobenzoyl)-5-(4-chlorophenyl)-3-(ethylamino)-1-[(3-fluorophenyl)methyl]-5H-pyrrol-2-one] | > 100 | > 100 | > 100 | 73 ± 9.2 | > 100 | > 100 | > 100 | > 100 | > 100 | > 100 | – | – | – | –
